Results reported in publication PMC10987480, “Biological and mutational analyses of CXCR4–antagonist interactions and design of new antagonistic analogs” (Bioscience Reports, 2023).
Positions of bridges follow the written chain, without caps; N, C: chain ends. Non-standard residues stand in square brackets, D forms with d. Residues, ends and D or L forms follow the SMILES beside them. Chains are numbered I, II in the order given. 2Nal = N[C@@H](Cc1ccc2ccccc2c1)C(=O)O; Lys(iPr) = CC(C)NCCCC[C@H](N)C(=O)O

Columns and labels:
[1] = molecular target: T1, CXCR4 D262E (Homo sapiens, UniProt P61073, D262E); assay: Competitive binding to CXCR4 mutant D262E (12G5, CHO cells); conditions: TM6, class of reduction vs wild-type CXCR4, 12G5 competition, averages of at least three independent experiments
T1 construct: expressed in transfected cells
Procedure: (§1) Plasmid pcDNA3-CXCR4 and mutated pcDNA3-CXCR4 were extracted and transfected into CHO cells using Lipofectamine 2000 according to the manufacturer’s guidelines. The selective medium containing G418 at a concentration of 1.2 mg/ml was applied to isolate stably transfected cells. CHO cells expressing wild-type CXCR4 and mutant CXCR4 were obtained using fluorescence-activated cell sorting (FACS).
(§2) All of the CXCR4 mutants were prepared using PCR technology. Briefly, pairs of asymmetrical primers containing the desired amino acid mutations (Supplementary Tables S1 and S2), each complementary to opposite strands of the pcDNA3–CXCR4, were designed for amplification by Q5® High-Fidelity DNA polymerase and the generation of mutated constructs. The methylated pcDNA3–CXCR4 templates were digested by DpnI. The mutated pcDNA3–CXCR4 was transformed into competent E. coli TOP10 for long-term storage and amplification.
(§3) The procedure for the CXCR4 competitive binding experiments was published previously. Briefly, CXCR4 antibody 12G5 (250 ng/ml) was incubated with 5 × 10^5 cells and varying concentrations of unlabeled compounds in a final volume of 100 μl of assay buffer (PBS with 0.5% BSA and 0.05% NaN3) in 96-well plates for 40 min on ice, after being washed with assay buffer once. The cells were incubated with FITC-conjugated second antibody IgG for 30 min on ice, then washed with assay buffer three times. The fluorescence intensity was measured for excitation at 485 nm and emission at 535 nm using multimode plate reader (PerkinElmer). The IC50 values were calculated using graphpad Prism 7. Experiments were performed at least three times.

[2] = molecular target: T2, CXCR4 D171A (Homo sapiens, UniProt P61073, D171A); assay: Competitive binding to CXCR4 mutant D171A (12G5, CHO cells); conditions: TM4, class of reduction vs wild-type CXCR4, 12G5 competition, averages of at least three independent experiments
T2 construct: expressed in transfected cells
Procedure: as §1, §2, §3

[3] = molecular target: CXCR4 (Homo sapiens, UniProt P61073); assay: SDF-1α-induced calcium mobilization assay in SupT1 cells (Fluo-4); assay type: cell-based; parameters: host or cells: SupT1 cells; conditions: 50 nM SDF-1α
Procedure: Figure 2 The inhibitory effect of the antagonists on SDF-1α-induced cell chemotaxis and calcium mobilization in SupT1 cells The antagonists and concentrations used were labeled in each lane. (A) The inhibition of cell migration by the noted antagonists. SupT1 cells pre-treated with or without CXCR4 antagonists were seeded in the upper well and cell migrated by 2 nM SDF-1α. Migrated cells without SDF-1α were used as a negative (0%) and migrated cell induced by SDF-1α as a positive control (100%). […] SupT1 cells were treated with or without CXCR4 antagonists and activated by 50 nM SDF-1α. To directly compare the inhibitory effect of the antagonists on calcium mobilization, the vehicle background and baseline were removed using GraphPad and Origin. The data were averages of at least three independent experiments.
SupT1 cells were collected and washed using HHBS buffer (Hanks’ Balanced Salt solution supplemented with 20 mM HEPES) and incubated with 1 mM probenecid (Energy Chemical, China) and 4 μM Fluo-4 (AAT bioquest, U.S.A.) for 37°C for 30 min with vortex every 5 min. After being washed with HHBS, cells were suspended in PBS at 2 × 10^6/ml and seeded 200 μl cells and various concentrations of compounds per well in 96-well plate. Following 50 nM SDF-1α was added to each well, the fluorescence intensity was measured (Ex/Em = 496/516 nm) using EnSpire® multimode plate reader (PerkinElmer, U.S.A.).

[4] = test system: CXCR4; conditions: cited from earlier work
From the text: To understand the receptor–ligand recognition mechanism involving CXCR4 and its antagonists, here in this study we conducted a series of comparative analyses of the biological activities and CXCR4 binding sites of eleven known CXCR4 antagonists, including the three mentioned above, using cell-based bioassays, CXCR4 site-directed mutagenesis and computer-aided molecular modeling. These antagonists studied here were chosen from different representative structural types including both D-peptides (i.e., HC4319, DV1, DV1 dimer, and DV3) and a representative counterpart L-peptide (i.e., V1) derived ...

[5] = molecular target: T3, CXCR4 I259A (Homo sapiens, UniProt P61073, I259A); assay: Competitive binding to CXCR4 mutant I259A (12G5, CHO cells); parameters: key to the marks not given beside the values; conditions: TM6, class of reduction vs wild-type CXCR4, 12G5 competition, averages of at least three independent experiments
T3 construct: expressed in transfected cells
Procedure: as §1, §2, §3

[6] = molecular target: T4, CXCR4 Y255A (Homo sapiens, UniProt P61073, Y255A); assay: Competitive binding to CXCR4 mutant Y255A (12G5, CHO cells); conditions: TM6, class of reduction vs wild-type CXCR4, 12G5 competition, averages of at least three independent experiments
T4 construct: expressed in transfected cells
Procedure: as §1, §2, §3

[7] = molecular target: T5, CXCR4 Y256A (Homo sapiens, UniProt P61073, Y256A); assay: Competitive binding to CXCR4 mutant Y256A (12G5, CHO cells); conditions: TM6, class of reduction vs wild-type CXCR4, 12G5 competition, averages of at least three independent experiments
T5 construct: expressed in transfected cells
Procedure: as §1, §2, §3

[8] = molecular target: T6, CXCR4 Y116A (Homo sapiens, UniProt P61073, Y116A); assay: Competitive binding to CXCR4 mutant Y116A (12G5, CHO cells); conditions: TM3, class of reduction vs wild-type CXCR4, 12G5 competition, averages of at least three independent experiments
T6 construct: expressed in transfected cells
Procedure: as §1, §2, §3

[9] = molecular target: T7, CXCR4 W252A (Homo sapiens, UniProt P61073, W252A); assay: Competitive binding to CXCR4 mutant W252A (12G5, CHO cells); conditions: TM6, class of reduction vs wild-type CXCR4, 12G5 competition, averages of at least three independent experiments
T7 construct: expressed in transfected cells
Procedure: as §1, §2, §3

[10] = molecular target: T8, CXCR4 T117A (Homo sapiens, UniProt P61073, T117A); assay: Competitive binding to CXCR4 mutant T117A (12G5, CHO cells); conditions: TM3, class of reduction vs wild-type CXCR4, 12G5 competition, averages of at least three independent experiments
T8 construct: expressed in transfected cells
Procedure: as §1, §2, §3

[11] = molecular target: T9, CXCR4 Q200A (Homo sapiens, UniProt P61073, Q200A); assay: Competitive binding to CXCR4 mutant Q200A (12G5, CHO cells); parameters: key to the marks not given beside the values; conditions: TM5, class of reduction vs wild-type CXCR4, 12G5 competition, averages of at least three independent experiments
T9 construct: expressed in transfected cells
Procedure: as §1, §2, §3

[12] = molecular target: T10, CXCR4 D97A (Homo sapiens, UniProt P61073, D97A); assay: Competitive binding to CXCR4 mutant D97A (12G5, CHO cells); conditions: TM2, class of reduction vs wild-type CXCR4, 12G5 competition, averages of at least three independent experiments
T10 construct: expressed in transfected cells
Procedure: as §1, §2, §3

[13] = molecular target: T11, CXCR4 D262N (Homo sapiens, UniProt P61073, D262N); assay: Competitive binding to CXCR4 mutant D262N (12G5, CHO cells); conditions: TM6, class of reduction vs wild-type CXCR4, 12G5 competition, averages of at least three independent experiments
T11 construct: expressed in transfected cells
Procedure: as §1, §2, §3

[14] = molecular target: T12, CXCR4 E288Q (Homo sapiens, UniProt P61073, E288Q); assay: Competitive binding to CXCR4 mutant E288Q (12G5, CHO cells); conditions: TM7, class of reduction vs wild-type CXCR4, 12G5 competition, averages of at least three independent experiments
T12 construct: expressed in transfected cells
Procedure: as §1, §2, §3

[15] = molecular target: T13, CXCR4 E288A (Homo sapiens, UniProt P61073, E288A); assay: Competitive binding to CXCR4 mutant E288A (12G5, CHO cells); conditions: TM7, class of reduction vs wild-type CXCR4, 12G5 competition, averages of at least three independent experiments
T13 construct: expressed in transfected cells
Procedure: as §1, §2, §3

[16] = molecular target: T14, CXCR4 E288D (Homo sapiens, UniProt P61073, E288D); assay: Competitive binding to CXCR4 mutant E288D (12G5, CHO cells); conditions: TM7, class of reduction vs wild-type CXCR4, 12G5 competition, averages of at least three independent experiments
T14 construct: expressed in transfected cells
Procedure: as §1, §2, §3

T2 sequence (P61073 whole entry D171A): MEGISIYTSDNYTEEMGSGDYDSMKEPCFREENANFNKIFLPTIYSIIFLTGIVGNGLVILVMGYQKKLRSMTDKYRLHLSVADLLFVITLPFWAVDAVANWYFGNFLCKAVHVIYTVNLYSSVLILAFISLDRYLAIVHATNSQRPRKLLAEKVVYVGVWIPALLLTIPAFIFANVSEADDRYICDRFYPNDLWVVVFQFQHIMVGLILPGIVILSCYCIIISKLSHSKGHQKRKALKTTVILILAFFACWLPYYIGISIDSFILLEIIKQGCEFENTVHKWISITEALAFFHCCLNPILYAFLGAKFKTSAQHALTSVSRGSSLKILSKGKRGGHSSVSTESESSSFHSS
T3 sequence (P61073 whole entry I259A): as the sequence (P61073 whole entry D171A) above, with A171D, I259A counted along it
T5 sequence (P61073 whole entry Y256A): as the sequence (P61073 whole entry D171A) above, with A171D, Y256A counted along it
T8 sequence (P61073 whole entry T117A): as the sequence (P61073 whole entry D171A) above, with T117A, A171D counted along it
T7 sequence (P61073 whole entry W252A): as the sequence (P61073 whole entry D171A) above, with A171D, W252A counted along it
T10 sequence (P61073 whole entry D97A): as the sequence (P61073 whole entry D171A) above, with D97A, A171D counted along it
T1 sequence (P61073 whole entry D262E): as the sequence (P61073 whole entry D171A) above, with A171D, D262E counted along it
T11 sequence (P61073 whole entry D262N): as the sequence (P61073 whole entry D171A) above, with A171D, D262N counted along it
T4 sequence (P61073 whole entry Y255A): as the sequence (P61073 whole entry D171A) above, with A171D, Y255A counted along it
Chain of CXCR4 (Homo sapiens, UniProt P61073) (P61073 whole entry): as the sequence (P61073 whole entry D171A) above, with A171D counted along it
T9 sequence (P61073 whole entry Q200A): as the sequence (P61073 whole entry D171A) above, with A171D, Q200A counted along it
T6 sequence (P61073 whole entry Y116A): as the sequence (P61073 whole entry D171A) above, with Y116A, A171D counted along it
T12 sequence (P61073 whole entry E288Q): as the sequence (P61073 whole entry D171A) above, with A171D, E288Q counted along it
T13 sequence (P61073 whole entry E288A): as the sequence (P61073 whole entry D171A) above, with A171D, E288A counted along it
T14 sequence (P61073 whole entry E288D): as the sequence (P61073 whole entry D171A) above, with A171D, E288D counted along it

Row | Compound | Competitive receptor binding activity, CXCR4 D262E [1] | Competitive receptor binding activity, CXCR4 D171A [2] | Inhibition of calcium mobilization (in words) ([3]; at 5 nM) | Potency (in words) [4] | Competitive receptor binding activity, CXCR4 I259A [5] | Competitive receptor binding activity, CXCR4 Y255A [6] | Competitive receptor binding activity, CXCR4 Y256A [7] | Competitive receptor binding activity, CXCR4 Y116A [8] | Competitive receptor binding activity, CXCR4 W252A [9] | Competitive receptor binding activity, CXCR4 T117A [10] | Competitive receptor binding activity, CXCR4 Q200A [11] | Competitive receptor binding activity, CXCR4 D97A [12] | inhibition at 0.005 µM ([3]; SUP-T1, at 5 nM) [%] | Competitive receptor binding activity, CXCR4 D262N [13] | inhibition at 1 µM ([3]; SUP-T1, at 1 μM) [%] | Competitive receptor binding activity, CXCR4 E288Q [14] | Competitive receptor binding activity, CXCR4 E288A [15] | Competitive receptor binding activity, CXCR4 E288D [16] | Inhibition of calcium mobilization (in words) ([3]; single concentration (Figure 2B)) | Binding affinity (in words) [4]
1 | c1cc(CN2CCCNCCNCCCNCC2)ccc1CN1CCCNCCNCCCNCC1 [AMD3100] | + (30–60% reduction compared with wild-type CXCR4) | + (30–60% reduction compared with wild-type CXCR4) | very weak inhibition | submicromolar | +++ | ++ (10–29% reduction compared with wild-type CXCR4) | +++ | ++ (10–29% reduction compared with wild-type CXCR4) | +++ | +++ | +++ | ++ (10–29% reduction compared with wild-type CXCR4) |  |  |  |  |  |  |  | 
2 | NCCCCN(Cc1nc2ccccc2[nH]1)[C@H]1CCCc2cccnc21 [AMD11070] | +++ | + (30–60% reduction compared with wild-type CXCR4) |  | nanomolar potent | +++ | +++ | +++ | +++ | +++ | +++ | +++ | + (30–60% reduction compared with wild-type CXCR4) | 71 | +++ |  |  |  |  |  | 
3 | CC(C)C[C@@H](N)C(=O)NCC(=O)N[C@H](C)C(=O)N[C@H](CO)C(=O)N[C@H](Cc1c[nH]c2ccccc12)C(=O)N[C@H](Cc1c[nH]cn1)C(=O)N[C@H](CCCNC(=N)N)C(=O)N1CCC[C@@H]1C(=O)N[C@H](CC(=O)O)C(=O)N[C@H](CCCCN)C(=O)NCCCC[C@@H](NC(=O)[C@H]1CCCN1C(=O)[C@@H](CC(C)C)NC(=O)[C@H]1CCCN1C(=O)[C@@H](CCCNC(=N)N)NC(=O)[C@@H](CCCCN)NC(=O)[C@@H](CCC(N)=O)NC(=O)[C@@H](Cc1ccc(O)cc1)NC(=O)CNC(=O)[C@@H](CC(C)C)NC(=O)[C@@H](CS)NC(=O)[C@@H](CS)NC(=O)[C@@H](CCCCN)NC(=O)[C@@H](CC(=O)O)NC(=O)[C@H]1CCCN1C(=O)[C@@H](CCCNC(=N)N)NC(=O)[C@@H](Cc1c[nH]cn1)NC(=O)[C@@H](Cc1c[nH]c2ccccc12)NC(=O)[C@@H](CO)NC(=O)[C@@H](C)NC(=O)CNC(=O)[C@H](N)CC(C)C)C(=O)O [HC4319] (I: H-[dL]G[dA][dS][dW][dH][dR][dP][dD][dK][dC][dC][dL]G[dY][dQ][dK][dR][dP][dL][dP][dK]-OH / II: H-[dL]G[dA][dS][dW][dH][dR][dP][dD][dK]; amide I:22-II:C; N-terminus and C-terminus assumed) | ++ (10–29% reduction compared with wild-type CXCR4) | +++ |  |  | +++ | ++ (10–29% reduction compared with wild-type CXCR4) | +++ |  | +++ | +++ | +++ | ++ (10–29% reduction compared with wild-type CXCR4) |  | ++ (10–29% reduction compared with wild-type CXCR4) | 77 | ++ (10–29% reduction compared with wild-type CXCR4) | + (30–60% reduction compared with wild-type CXCR4) | + (30–60% reduction compared with wild-type CXCR4) |  | 
4 | CC(C)NCCCC[C@H](NC(=O)[C@H]1CCC(=O)N[C@@H](Cc2ccccc2)C(=O)N[C@@H](Cc2ccc(O)cc2)C(=O)N[C@@H](CCCCNC(C)C)C(=O)N[C@H](CCCNC(=N)N)C(=O)N[C@@H](Cc2ccc3ccccc3c2)C(=O)NCC(=O)N1)C(N)=O [LY2510924] (FY[Lys(iPr)][dR][2Nal]G[dE][Lys(iPr)]-NH2; lactam N-7 (inferred)) | ++ (10–29% reduction compared with wild-type CXCR4) |  |  |  |  | ++ (10–29% reduction compared with wild-type CXCR4) | ++ (10–29% reduction compared with wild-type CXCR4) |  | ++ (10–29% reduction compared with wild-type CXCR4) | + (30–60% reduction compared with wild-type CXCR4) |  | + (30–60% reduction compared with wild-type CXCR4) |  | +++ |  |  |  |  | significant inhibition | subnanomolar
